In one series the target is T1, rat Bcrp (Rattus norvegicus, UniProt Q80W57).
T1 sequence (Q80W57 1-657): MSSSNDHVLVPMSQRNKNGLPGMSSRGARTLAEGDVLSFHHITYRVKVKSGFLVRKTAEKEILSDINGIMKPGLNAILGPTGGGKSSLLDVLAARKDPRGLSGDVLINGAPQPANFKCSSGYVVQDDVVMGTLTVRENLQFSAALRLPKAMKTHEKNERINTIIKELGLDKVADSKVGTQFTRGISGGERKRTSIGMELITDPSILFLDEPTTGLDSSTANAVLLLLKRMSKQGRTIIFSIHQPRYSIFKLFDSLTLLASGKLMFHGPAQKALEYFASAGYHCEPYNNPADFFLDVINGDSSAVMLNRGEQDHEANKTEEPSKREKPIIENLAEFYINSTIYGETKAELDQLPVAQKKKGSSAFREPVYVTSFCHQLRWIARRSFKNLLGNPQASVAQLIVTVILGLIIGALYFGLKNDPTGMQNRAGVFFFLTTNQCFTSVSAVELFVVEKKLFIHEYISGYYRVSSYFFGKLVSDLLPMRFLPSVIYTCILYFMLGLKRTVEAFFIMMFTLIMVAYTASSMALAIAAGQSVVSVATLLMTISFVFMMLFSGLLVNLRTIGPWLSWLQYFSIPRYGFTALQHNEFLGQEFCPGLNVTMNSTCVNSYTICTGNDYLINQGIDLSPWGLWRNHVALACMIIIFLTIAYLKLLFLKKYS
The series can be described thus: Vesicular transport assay, inside-out membrane vesicles expressing rat Bcrp. As to conditions: 10 min. On the procedure:
Inside-out membrane vesicles (5 mg protein/mL), prepared from insect cells expressing human multidrug resistance-associated protein (MRP) 2, MRP3, MRP4, breast cancer resistance protein (BCRP), bile salt export pump (BSEP), and multidrug resistance protein (MDR) one and rat Mrp2, Mrp4, Bcrp, and Bsep, and vesicles (5 mg protein/mL; prepared from the insect cells expressing no ABC transporter; serving as negative control) were obtained from Genomembrane (Kanazawa, Japan).
The test Danshen compounds at 100 µM final concentration were separately incubated with the membrane vesicles for 10 min. Buffer C (50 mM MOPS-tris, 70 mM KCl, 7.5 mM MgCl2, pH 7.0) was used for preincubation and incubation, while buffer D (40 mM MOPS-tris, 70 mM KCl, pH 7.0) was used for vesicle washing. The transport rate (pmol/mg protein/min) of the test Danshen compound was calculated using Equation (2): Transport=(CV×VV)/T/WV (2) where C V, V V, T, and W V represent concentration of the compound in vesicular lysates supernatant (μM), volume of the lysates (μL), incubation time (10 min), and amount of vesicle protein amount per well (0.05 mg), respectively. Differential transport of the test Danshen compound between ATP-containing vesicles and AMP-containing vesicles was defined as net transport ratio (TransportATP/TransportAMP ratio). […] All the incubation samples were analyzed by liquid chromatography/mass spectrometry.

The next series concerns the target T2, human PEPT2 (Homo sapiens, UniProt Q16348).
T2 sequence (Q16348 1-729): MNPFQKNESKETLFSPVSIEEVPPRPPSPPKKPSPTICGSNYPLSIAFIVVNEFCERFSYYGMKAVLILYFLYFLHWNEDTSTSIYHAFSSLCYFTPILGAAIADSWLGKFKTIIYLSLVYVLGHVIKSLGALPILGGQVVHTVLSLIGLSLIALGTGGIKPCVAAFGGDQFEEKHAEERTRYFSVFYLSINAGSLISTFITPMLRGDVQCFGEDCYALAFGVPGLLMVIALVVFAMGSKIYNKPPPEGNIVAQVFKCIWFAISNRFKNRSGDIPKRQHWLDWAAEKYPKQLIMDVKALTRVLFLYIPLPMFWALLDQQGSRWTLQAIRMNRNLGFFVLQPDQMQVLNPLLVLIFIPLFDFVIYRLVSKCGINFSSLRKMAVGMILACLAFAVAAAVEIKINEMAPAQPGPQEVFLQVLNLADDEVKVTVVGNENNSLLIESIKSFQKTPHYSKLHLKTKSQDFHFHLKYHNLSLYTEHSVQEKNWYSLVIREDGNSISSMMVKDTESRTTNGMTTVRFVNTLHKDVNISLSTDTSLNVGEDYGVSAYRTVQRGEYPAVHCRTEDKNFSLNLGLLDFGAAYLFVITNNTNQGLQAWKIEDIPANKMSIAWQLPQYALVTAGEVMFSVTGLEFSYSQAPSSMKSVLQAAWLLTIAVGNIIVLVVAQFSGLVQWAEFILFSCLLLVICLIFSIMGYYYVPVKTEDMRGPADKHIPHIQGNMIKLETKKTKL
The series can be described thus: Cellular transport assay, HEK-293 cells expressing human PEPT2. The settings on record: Danshen phenolic acid at 100 μM final concentration, 10 min, incubation pH 6.0; human PEPT2-transfected vs mock cells.

The target in the next series is T3, human OCT1 (Homo sapiens, UniProt O15245).
T3 sequence (O15245 1-554): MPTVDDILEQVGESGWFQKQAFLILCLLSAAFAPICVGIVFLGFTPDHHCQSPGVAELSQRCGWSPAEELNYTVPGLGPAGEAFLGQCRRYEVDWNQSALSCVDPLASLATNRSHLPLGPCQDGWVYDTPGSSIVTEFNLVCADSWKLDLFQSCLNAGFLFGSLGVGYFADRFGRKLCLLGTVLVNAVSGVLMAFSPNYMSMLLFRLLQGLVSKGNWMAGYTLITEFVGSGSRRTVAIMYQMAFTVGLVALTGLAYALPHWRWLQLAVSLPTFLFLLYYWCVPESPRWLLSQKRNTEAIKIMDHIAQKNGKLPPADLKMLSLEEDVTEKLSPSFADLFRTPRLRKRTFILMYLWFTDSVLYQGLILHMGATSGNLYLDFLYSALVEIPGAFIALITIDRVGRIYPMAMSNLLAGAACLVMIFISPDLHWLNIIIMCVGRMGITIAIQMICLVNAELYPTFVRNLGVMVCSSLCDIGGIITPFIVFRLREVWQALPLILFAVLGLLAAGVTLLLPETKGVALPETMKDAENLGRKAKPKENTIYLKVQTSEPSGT
The series can be described thus: Cellular transport assay, HEK-293 cells expressing human OCT1. The settings on record: Danshen phenolic acid at 100 μM final concentration, 10 min; human OCT1-transfected vs mock cells.

Where [1] appears, read: Danshen phenolic acid at 100 μM final concentration, rat Bcrp vesicles.

In the case of `O=C(/C=C/c1ccc(O)c2c1[C@H](C(=O)O)[C@@H](c1ccc(O)c(O)c1)O2)O[C@H](Cc1ccc(O)c(O)c1)C(=O)O` [Lithospermic acid, lithospermic acid], at rat Bcrp (setting [1]), the “TransportATP/TransportAMP ratio (net transport ratio)” value (from here on “TransportATP/TransportAMP ratio”) was 1.27 ± 0.20. For the same compound, the “TransportTC/TransportMC ratio (net transport ratio)” value (“TransportTC/TransportMC ratio” below) at human PEPT2 is given as 0.74 ± 0.06; at human OCT1, 1.56 ± 0.26.
The corresponding values for `O=C(O)c1ccc(O)c(O)c1` [Protocatechuic acid, protocatechuic acid] are 0.94 ± 0.21, 1.43 ± 0.32 and 1.09 ± 0.33.
In the case of `O=C(/C=C/c1ccc(O)c(O)c1)O[C@H](Cc1ccc(O)c(O)c1)C(=O)O` [Rosmarinic acid, rosmarinic acid], the “TransportATP/TransportAMP ratio” value at rat Bcrp (rat, not told, 100 μM, pH 7) is 1.45 ± 0.32.
Still for that read-out and setting: the figure for `O=C(/C=C/c1ccc(O)c(O)c1/C=C/c1ccc(O)c(O)c1)O[C@H](Cc1ccc(O)c(O)c1)C(=O)O` [Salvianolic acid A, salvianolic acid A] is 1.31 ± 0.04.
Turning to `O=C(O)Cc1c(/C=C/C(=O)O[C@H](Cc2ccc(O)c(O)c2)C(=O)O)ccc(O)c1O` [Salvianolic acid D, salvianolic acid D], the “TransportTC/TransportMC ratio” value on human PEPT2 is given as 1.03 ± 0.11; at human OCT1, 1.04 ± 0.24.
With salvianolic acid B, the “TransportATP/TransportAMP ratio” value at rat Bcrp (setting [1]) is recorded as 1.13 ± 0.14. For the same compound, the “TransportTC/TransportMC ratio” value at human PEPT2 came out at 1.06 ± 0.12; on human OCT1 it was 1.03 ± 0.07.

Source of the values: article PMC9127186, “Molecular Basis Underlying Hepatobiliary and Renal Excretion of Phenolic Acids of Salvia miltiorrhiza Roots (Danshen)” (Frontiers in Pharmacology, 2022).
